What was measured:
[1] = format: in vitro ADME, porcine; conditions: pig, 1 h, 0.003 % w/w
Description: Three particle-free and three particle-containing formulations were prepared, each containing 0.003% F (dissolved in dispersion medium), and the penetration of F into hair follicles (HF) was studied.
Fluorescein (0.003% w/w) was added to dispersion media that contained no particles (water, TPGS-solution (1% w/w) or ethanol (96% v/v)) and was added to dispersion media that contained particles (1. curcumin nanocrystals (5% w/w dispersed in TPGS solution (1% w/w)—particle size was 257 nm, polydispersity index 0.26 determined by photon correlation spectroscopy); 2. quercetin nanocrystals (5% w/w dispersed in TPGS solution (1% w/w)—particle size was 580 nm, polydispersity index 0.36, determined by photon correlation spectroscopy); 3. Lipid nanoparticles (10% w/w dispersed in TPGS solution (1% w/w)—particle size was 195 nm, polydispersity index 0.09, determined by photon correlation spectroscopy).
The formulations (50 μl on a skin areal of 4 cm^2) were applied on fresh porcine ears (ventral side, massage for 60 s, penetration time 1 h at 32° C.). Skin biopsies (Ø 15 mm) were obtained from the treated skin areas from which skin sections (40 μm, 100 sections/biopsy) were prepared. The skin sections and the hair follicle sections were analyzed by epifluorescence microscopy. Images were taken and the penetration depth of the fluorescein was directly measured (n=3). […]

[2] = format: in vitro ADME
Text: FIG. 1: Confocal microscopic image of a skin section with hair follicle after topical application of fluorescein natrium salt (green fluorescent dye) dissolved in dispersion medium together with a caffeine nanosuspension.
Particle-containing formulations were applied as dispersions (particles in a liquid or semi-solid dispersion medium). Besides the particles, the dispersion medium also contained dissolved molecules, name the fluorescent molecule fluorescein, which is an organic compound soluble in water and alcohol.

penetration depth with particles compared to the particle-free formulations [1]: > 160%
SMILES: O=C1OC2(c3ccc(O)cc3Oc3cc(O)ccc32)c2ccccc21 [F, Fluorescein]
penetration into the hair follicles [2]: no efficient penetration into the hair follicles
